Active and inactive are the calls of the source. No cut-off for these calls is given here.

Tested on in one assay: not listed separately
In words: Inhibition of human TREX1 exonuclease activity using labeled DNA oligonucleotide as substrate incubated for 30 mins and measured after 45 mins by fluorescence assay.
Settings: not given
Compound `N[C@@H]1C[C@H]2C(=O)N([C@H](CCc3nnn[nH]3)C(=O)NCc3ccc(Cl)c(Cl)c3F)CCC(CCc3ccccc3)N2C1` (stereo not given in full) returned an IC50 of less than 1 µM.
On to `N[C@@H]1C[C@H]2C(=O)N([C@H](CCC(=O)O)C(=O)NCc3ccc(Cl)c(Cl)c3F)CCC(CCc3ccccc3)N2C1` (stereo not given in full), for which the IC50 is less than 1 µM.
Still for that read-out and setting: with `N[C@@H]1C[C@H]2C(=O)N([C@H](CCC(=O)NO)C(=O)NCc3ccc(Cl)c(Cl)c3)CCC(COc3cccc(F)c3)N2C1` (stereo not given in full) the figure was less than 1 µM.
On the same count and under the same terms, with `N[C@@H]1C[C@H]2C(=O)N([C@H](CCC(=O)O)C(=O)NCc3ccc(Cl)c(Cl)c3)CCC(COc3ccc(F)cc3)N2C1` (stereo not given in full) the figure was less than 1 µM; with `N[C@@H]1C[C@H]2C(=O)N([C@H]3CCCN(S(=O)(=O)c4ccc(Cl)c(Cl)c4)C3)CCC(CCc3ccccc3)N2C1` (stereo not given in full), “in the range around 1 µM”.
As for `CS(=O)(=O)NCC[C@H](C(=O)NCc1ccc(Cl)c(Cl)c1)N1CCC(CCc2ccccc2)N2C[C@H](N)C[C@H]2C1=O` (stereo not given in full), the IC50 is less than 1 µM.
The same measure, in the same setting: under `COc1cc(Cl)c(Cl)cc1CNC(=O)[C@@H](CCC(=O)O)N1CCC(CCc2ccccc2)N2C[C@H](N)C[C@H]2C1=O` (stereo not given in full) stands less than 1 µM; under `COc1ccc(CNC(=O)[C@@H](CC(C)C)N2CCC(CCc3ccccc3)N3C[C@H](N)C[C@H]3C2=O)cc1` (stereo not given in full), less than 1 µM.
Turning to `N#CC[C@H](C(=O)N1CCc2c(ccc(Cl)c2Cl)C1)N1CCC(CCc2ccccc2)N2C[C@H](N)C[C@H]2C1=O` (stereo not given in full), the IC50 entry is “in the range around 1 µM”.
Same read-out and setting: under `N#CC[C@H](C(=O)NCc1ccc(Cl)c(C(F)(F)F)c1)N1CCC(CCc2ccccc2)N2C[C@H](N)C[C@H]2C1=O` (stereo not given in full) stands less than 1 µM; under `COc1c(CNC(=O)[C@@H](CCC(N)=O)N2CCC(CCc3ccccc3)N3C[C@H](N)C[C@H]3C2=O)ccc(Cl)c1Cl` (stereo not given in full), less than 1 µM.
Same read-out and setting: with `CCOC(=O)CC[C@H](C(=O)NCc1ccc(Cl)c(Cl)c1)N1CCC(CCc2ccccc2)N2C[C@H](N)C[C@H]2C1=O` (stereo not given in full) the figure was less than 1 µM.
Regarding `N[C@@H]1C[C@H]2C(=O)N([C@@H]3CCCN(C(=O)c4ccc(Cl)c(Cl)c4)C3)CCC(CCc3ccccc3)N2C1` (stereo not given in full), the IC50 result is “in the range around 10 µM”.
Consider `N[C@@H]1C[C@H]2C(=O)N([C@H]3CCN(Cc4ccc(Cl)c(Cl)c4)C3=O)CCC(CCc3ccccc3)N2C1` (stereo not given in full), for which the IC50 is less than 1 µM.
Same read-out and setting: under `N[C@@H]1C[C@H]2C(=O)N([C@H](CCC(=O)O)C(=O)N3CCOC[C@H]3c3ccc(Cl)c(Cl)c3)CCC(CCc3ccccc3)N2C1` (stereo not given in full) stands less than 1 µM; under `COc1ccc(OCC2CCN([C@H](CCC(=O)O)C(=O)NCc3ccc(Cl)c(Cl)c3)C(=O)[C@@H]3C[C@@H](N)CN23)cc1` (stereo not given in full), “in the range around 1 µM”; under `COc1c(CNC(=O)[C@@H](CCc2nnn[nH]2)N2CCC(CCc3ccccc3)N3C[C@H](N)C[C@H]3C2=O)ccc(Cl)c1Cl` (stereo not given in full), less than 1 µM.
On the same count and under the same terms, with `COC(=O)CC[C@H](C(=O)NCc1ccc(Cl)cn1)N1CCC(CCc2ccccc2)N2C[C@H](N)C[C@H]2C1=O` (stereo not given in full) the figure was less than 1 µM; with `CONC(=O)CC[C@H](C(=O)NCc1ccc(Cl)c(Cl)c1)N1CCC(CCc2ccccc2)N2C[C@H](N)C[C@H]2C1=O` (stereo not given in full), less than 1 µM; with `N[C@@H]1C[C@H]2C(=O)N([C@H](CCC(=O)O)C(=O)NCc3ccc(Cl)c(Cl)c3)CCC(COc3ccc(Cl)cc3)N2C1` (stereo not given in full), less than 1 µM.
`CC(C)C[C@H](C(=O)NCc1ccc(F)c(F)c1)N1CCC(CCc2ccccc2)N2C[C@H](N)C[C@H]2C1=O` (stereo not given in full) showed an IC50 of less than 1 µM.
Still for that read-out and setting: with `COc1ccc(CNC(=O)[C@@H](CC(C)C)N2CCC(CCc3ccccc3)N3C[C@H](N)C[C@H]3C2=O)cc1Cl` (stereo not given in full) the figure was less than 1 µM; with `COC(=O)CC[C@H](C(=O)NCc1ccc(Cl)c(Cl)c1)N1CCC(CCc2ccccc2)N2C[C@H](N)C[C@H]2C1=O` (stereo not given in full), less than 1 µM.
On the same count and under the same terms, with `CC(C)Oc1c(CNC(=O)[C@@H](CCC#N)N2CCC(CCc3ccccc3)N3C[C@H](N)C[C@H]3C2=O)ccc(Cl)c1Cl` (stereo not given in full) the figure was less than 1 µM.
Take `COC(=O)CC[C@H](C(=O)NS(=O)(=O)c1ccc(Cl)c(Cl)c1)N1CCC(CCc2ccccc2)N2C[C@H](N)C[C@H]2C1=O` (stereo not given in full): the IC50 is less than 1 µM.
Still for that read-out and setting: under `Cc1ccc(OCC2CCN([C@H](CCC(=O)O)C(=O)NCc3ccc(Cl)c(Cl)c3)C(=O)[C@@H]3C[C@@H](N)CN23)cc1` (stereo not given in full) stands “in the range around 1 µM”.
On the same count and under the same terms, under `N=C(N)NCCC[C@H](C(=O)NCc1ccc(Cl)c(Cl)c1)N1CCC(CCc2ccccc2)N2C[C@H](N)C[C@H]2C1=O` (stereo not given in full) stands less than 1 µM; under `N[C@@H]1C[C@H]2C(=O)N([C@@H]3CCCN(Cc4ccc(Cl)c(Cl)c4)C3=O)CCC(CCc3ccccc3)N2C1` (stereo not given in full), less than 1 µM; under `N#CCC[C@H](C(=O)NCc1ccc(Cl)c(Cl)c1)N1CCC(COc2cccc(F)c2)N2C[C@H](N)C[C@H]2C1=O` (stereo not given in full), less than 1 µM.
Same read-out and setting: with `N[C@@H]1C[C@H]2C(=O)N([C@H](CCC(=O)O)C(=O)NCc3ccc(Cl)c(C(F)(F)F)c3)CCC(CCc3ccccc3)N2C1` (stereo not given in full) the figure was less than 1 µM; with `NC(=O)C[C@H](C(=O)NCc1ccc(Cl)c(Cl)c1)N1CCC(CCc2ccccc2)N2C[C@H](N)C[C@H]2C1=O` (stereo not given in full), less than 1 µM.
`N[C@@H]1C[C@H]2C(=O)N([C@H](CCC(=O)O)C(=O)N3CCC[C@H]3c3ccc(Cl)c(Cl)c3)CCC(CCc3ccccc3)N2C1` (stereo not given in full) returned an IC50 of less than 1 µM.
Same read-out and setting: under `NC(=O)CC[C@H](C(=O)NCc1ccc(Cl)c(Cl)c1F)N1CCC(CCc2ccccc2)N2C[C@H](N)C[C@H]2C1=O` (stereo not given in full) stands less than 1 µM; under `N#CC[C@H](C(=O)NCc1ccc(Cl)c(Cl)c1)N1CCC(CCc2ccccc2)N2C[C@H](N)C[C@H]2C1=O` (stereo not given in full), less than 1 µM.
The same measure, in the same setting: with `CC(C)C[C@H](C(=O)N[C@@H](C)c1ccccc1)N1CCC(CCc2ccccc2)N2C[C@H](N)C[C@H]2C1=O` (stereo not given in full) the entry was “in the range around 1 µM”; with `CCOC(=O)CC[C@H](C(=O)N1CCOC[C@H]1c1ccc(Cl)c(Cl)c1)N1CCC(CCc2ccccc2)N2C[C@H](N)C[C@H]2C1=O` (stereo not given in full), less than 1 µM; with `N[C@@H]1C[C@H]2C(=O)N([C@H]3CCCN(C(=O)c4ccc(Cl)c(Cl)c4)C3)CCC(CCc3ccccc3)N2C1` (mixture of isomers), “in the range around 10 µM”.
The same measure, in the same setting: under `COc1c(CNC(=O)[C@@H](CCC#N)N2CCC(CCc3ccccc3)N3C[C@H](N)C[C@H]3C2=O)ccc(Cl)c1Cl` (stereo not given in full) stands less than 1 µM; under `CC(C)C[C@H](C(=O)NCc1ccc(C(F)(F)F)c(F)c1)N1CCC(CCc2ccccc2)N2C[C@H](N)C[C@H]2C1=O` (stereo not given in full), less than 1 µM; under `N[C@@H]1C[C@H]2C(=O)N([C@H](CCC(=O)O)C(=O)NCc3ccc(Cl)c(Cl)c3)CCC(COc3ccccc3F)N2C1` (stereo not given in full), less than 1 µM.
On to `CC(C)C[C@H](C(=O)N(C)Cc1ccc(Cl)c(Cl)c1)N1CCC(CCc2ccccc2)N2C[C@H](N)C[C@H]2C1=O` (stereo not given in full), for which the IC50 is less than 1 µM.
The same measure, in the same setting: under `COc1c(CNC(=O)[C@@H](CCC(=O)O)N2CCC(CCc3ccccc3)N3C[C@H](N)C[C@H]3C2=O)ccc(Cl)c1Cl` (stereo not given in full) stands less than 1 µM.

Tested on in another assay: not listed separately
In words: Inhibition of TREX1 in human THP1-Dual cells assessed as activation of cGAS-STING pathway measured by ISRE luciferase reporter gene assay. It is filed as cell-based.
Settings: not given
Consider `N[C@@H]1C[C@H]2C(=O)N([C@H](CCc3nnn[nH]3)C(=O)NCc3ccc(Cl)c(Cl)c3F)CCC(CCc3ccccc3)N2C1` (stereo not given in full), for which the EC50 was 1 µM.
Still for that read-out and setting: with `N[C@@H]1C[C@H]2C(=O)N([C@H](CCC(=O)O)C(=O)NCc3ccc(Cl)c(Cl)c3F)CCC(CCc3ccccc3)N2C1` (stereo not given in full) the figure was 1 µM.

The next assay concerns MB49. In words: Antitumor activity against mouse MB49 cells xenografted in female C57BL/6 mouse assessed as reduction in tumor volume at 100 ug, IT(Intratumoral) followed by 10 Gy gamma irradiation. In kind it is functional, cell-based. Particulars: dose 100.0 µg.
Turning to `N[C@@H]1C[C@H]2C(=O)N([C@H](CCC(=O)O)C(=O)NCc3ccc(Cl)c(Cl)c3)CCC(CCc3ccccc3)N2C1` (stereo not given in full), the outcome was Active.

Broadly, the IC50 is the midpoint of a concentration-inhibition curve. Lower therefore signals higher potency. As a reminder, the EC50 is the concentration that produces a half-maximal response.

For the origin of these results see ChEMBL document CHEMBL5050834, “Cyclic trex1 inhibitors” (2021).
